Measured values published in patent publication US9233978B2, “6-fused heteroaryldihydropyrimidines for the treatment and prophylaxis of hepatitis B virus infection” (Hoffmann-La Roche Inc., priority 2014, dated 2016).
≈ marks a conversion by molar mass, not a printed value. Read-outs that look alike come from different tables or passages of the source.

Experiments:
HBV [1] = conditions: HBV infected transgenic mouse or humanized mouse models; cited from earlier work
CYP3A4 = assay: Cytochrome P450 induction screening assay, mRNA induction in human cryopreserved hepatocytes; assay type: in vitro ADME; conditions: CYP3A4 mRNA relative induction, 24 hours, test compound up to 10 μM
Experimental: Human cryopreserved hepatocytes (Life Technologies, Carlsbad, USA) were thawed and cultured in collagen I coated 96-well plates with a density of 52,000 cells/well. After attachment, medium was changed and cells were pre-cultured overnight in hepatocyte maintenance medium (HMM; Lonza, Switzerland).
Test compounds were dosed to the cells next morning at an indicated concentration (up to 10 μM) in HMM culture media containing gentamycin and a constant 0.1% DMSO. Similarly, dilutions of the positive inducer compounds omeprazole (prototypical inducer of human CYP1A2; final concentrations: 1 and 10 μM), phenobarbital (prototypical inducer of human CYP2B6; final concentrations: 100 and 1000 μM) and rifampicin (prototypical inducer of human CYP3A4; final concentrations: 1 and 10 μM) were prepared from 1000 fold DMSO stock solutions in HMM containing gentamycin. Medium change was then performed and cells were exposed for 24 hours to test compounds, positive inducer compounds, or vehicle (0.1% DMSO), respectively.
At the end of the compound exposure period, medium was removed and cells lysed using 100 μL/well MagNA Pure LC RNA isolation tissue lysis buffer (Roche Diagnostics AG, Rotkreuz, Switzerland). Plates were then sealed and frozen at −80° C. until further workup.
mRNA isolation was performed using the MagNA Pure 96 system (Roche Diagnostics AG, Rotkreuz, Switzerland) and the respective cellular RNA large volume kit (Roche Diagnostics AG, Rotkreuz, Switzerland) from thawed samples diluted 1:1 with PBS. The volume of the cell lysis and an elution volume of 100 μL were used. 20 μl of the resulting mRNA suspension was then used for reverse transcription using 20 μl of the transcript or first stand cDNA synthesis kit (Roche prime Supply, Mannheim, Germany). The resulting cDNA was diluted with 40 μl of H2O before using for qRT-PCR. qRT-PCR was performed by using the forward and the reverse primer, the corresponding UPL (all from Microsynth, Balgach, Switzerland) and the Taqman Fast advanced master mix (Applied Biosystems), on an ABI 7900 machine (Applied Biosystems).
qRT-PCR Ct-values for the respective P450s were put into relation to the Ct-value of RN18S1 (microsynth, Balgach, Switzerland) of the same sample. Doing so, a respective Δct-value was calculated. Using the average of all Δct-values for the vehicle control samples, a ΔΔct-value was calculated for each sample (ΔΔct-value(sample)=Δct-value(sample)−average of Δct-value of all vehicle controls). The fold induction of the respective sample was calculated as 2^(−ΔΔct). The individual fold induction values were then averaged per treatment condition (usually n=3 biological replicates).
Relative induction values to the respective positive inducer compound condition (10 μM omeprazole for CYP1A2; 1000 μM Phenobarbital for CYP2B6; 10 μM rifampicin for CYP3A4) were then calculated from the fold induction values as follows: Relative induction (%)=100×(T−V)/(P−V)

HepDE19 cells = assay: Cytotoxicity in HepDE19 cells (CCK-8) and selectivity index; assay type: cell-based; conditions: CC50 (HepDE19) value / EC50 (HepG2.2.15) value
In short: (§1)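 HepDE19 cells (DMEM-F12, 10% FBS) were treated with compound for five days, then given CCK-8 for 2 h at 37 °C and read at OD450 and OD630. CC50 is the concentration killing 50% of host cells. Selectivity index is CC50/EC50.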

[2] = as above; assay type: cell-based; conditions: human, HepDE19 cells; CCK-8 cell viability; five days after treatment
In short: as §1

Lysa solubility = assay type: physicochemical; conditions: 0.05 M phosphate buffer (pH 6.5); for solubility thermodynamic: phosphate buffer, pH 6.5, aqueous buffer, thermodynamic from solid
In short: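 Duplicate samples dried from 10 mM DMSO stocks, taken up in 0.05 M phosphate buffer pH 6.5, stirred 1 h, shaken 2 h and left overnight. Filtrate and 1/10 dilution quantified by direct UV or HPLC-UV, in μg/mL; above 80% of the calculated maximum, reported as greater than that value.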

[3] = Human microsomal metabolic stability; assay type: in vitro ADME; conditions: human microsomes 0.5 mg/mL, 1 μM test compound, NADPH, 37° C., pH 7.4, 0-30 minutes
In short: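 1 μM compound with 0.5 mg/mL human liver microsomal protein in 100 mM phosphate pH 7.4 at 37° C, started with 1 mM NADPH or a NADPH-regenerating system. Sampled at 0–30 min, quenched in cold methanol with tolbutamide internal standard; remaining parent quantified by LC-MS/MS.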

HBV [4] = assay: Anti-HBV activity in vitro, HepG2.2.15 cells, extracellular HBV DNA by qPCR; assay type: cell-based; conditions: HepG2.2.15 cells, HBV replication inhibited by 50%, extracellular HBV DNA by qPCR, five days after compound treatment, read-out: EC50
In short: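 Extracellular HBV DNA in culture supernatant was measured by qPCR after nucleic acid extraction. The supernatant came from constitutively replicating HepG2.2.15 cells exposed for five days to half-log-diluted compounds, with DMSO at 0.5% final. Cells had been plated overnight at 37 °C beforehand.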

[5] = Hepatitis B virus, HepG2.2.15, 120 h

| Structure (SMILES) | in vivo efficacy (HBV DNA reduction) (HBV [1]) | % of Positive control (10 μM Rifampicin) (CYP3A4) | Selectivity index (CC50/EC50) (HepDE19 cells) | CC50 at 5 days [2] | solubility thermodynamic (Lysa solubility) | Human Microsomal Clearance [3] | EC50 (HBV [4]; [5]) | Lysa (Lysa solubility) | EC50 (HBV [4]) |
| --- | --- | --- | --- | --- | --- | --- | --- | --- | --- |
| COC(=O)C1=C(C)NC(c2ncc(F)cc2F)=N[C@H]1c1ccc(F)cc1Cl [Bay 41-4109] | demonstrated in vivo efficacy with HBV DNA reduction |  |  |  |  |  |  |  |  |
| CCOC(=O)C1=C(CN2CCN3C(=O)N(CC(C)C(=O)O)C[C@@H]3C2)NC(c2nccs2)=N[C@H]1c1cccc(F)c1Cl (stereo partly drawn) [Example 21, 3-[(8aS)-7-[[(4R)-4-(2-chloro-3-fluoro-phenyl)-5-ethoxycarbonyl-2-thiazol-2-yl-1,4-dihydropyrimidin-6-yl]methyl]-3-oxo-5,6,8,8a-tetrahydro-1H-imidazo[1,5-a]pyrazin-2-yl]-2-methyl-propanoic acid] |  | 2.4% | >6211 | > 100000 nM | > 786 µg/mL | 2.7 mL/min/kg | 16 nM |  |  |
| COC(=O)C1=C(CN2CCN3C(=O)N(C(C)(C)C)C[C@@H]3[C@H]2C(=O)O)NC(c2nccs2)=N[C@H]1c1ccc(F)c(F)c1C (single isomer, unassigned) [Example 88B] |  | 3.7% | >20000 | > 100000 nM | > 745 µg/mL | 4.5 mL/min/kg | 5 nM |  |  |
| CCOC(=O)C1=C(CN2CCN3C(=O)N(C)C[C@H]3[C@@H]2C(=O)O)NC(c2nccs2)=N[C@H]1c1cccc(F)c1Cl (single isomer, unassigned) [Example 91B] |  | 1.7% | >50000 | > 100000 nM | > 705 µg/mL | 5.8 mL/min/kg | 2 nM |  |  |
| COC(=O)C1=C(CN2CCN3C(=O)N(CC4(C(=O)O)CCC4)C[C@@H]3C2)NC(c2nccs2)=N[C@H]1c1ccc(F)cc1Cl [Example 59, (R)-6-[(S)-2-(1-Carboxy-cyclobutylmethyl)-3-oxo-hexahydro-imidazo[1,5-a]pyrazin-7-ylmethyl]-4-(2-chloro-4-fluoro-phenyl)-2-thiazol-2-yl-1,4-dihydro-pyrimidine-5-carboxylic acid methyl ester] |  | 2.2% | >9091 | > 100000 nM | > 685 µg/mL | 2.3 mL/min/kg | 11 nM |  |  |
| CCOC(=O)C1=C(CN2CCN3C(=O)N(CC4(C(=O)O)CC4)C[C@@H]3C2)NC(c2nccs2)=N[C@H]1c1cccc(F)c1Cl [Example 36, 1-[[(8aS)-7-[[(4R)-4-(2-chloro-3-fluoro-phenyl)-5-ethoxycarbonyl-2-thiazol-2-yl-1,4-dihydropyrimidin-6-yl]methyl]-3-oxo-5,6,8,8a-tetrahydro-1H-imidazo[1,5-a]pyrazin-2-yl]methyl]cyclopropanecarboxylic acid] |  | 6% | >18181 | > 100000 nM | 485 µg/mL (≈ 786 µM) | 4.4 mL/min/kg | 6 nM |  |  |
| COC(=O)C1=C(CN2CCN3C(=O)N(CCC(C)(C)C(=O)O)C[C@@H]3C2)NC(c2nccs2)=N[C@H]1c1ccc(F)cc1Cl [Example 54, 4-[(8aS)-7-[[(4R)-4-(2-chloro-4-fluoro-phenyl)-5-methoxycarbonyl-2-thiazol-2-yl-1,4-dihydropyrimidin-6-yl]methyl]-3-oxo-5,6,8,8a-tetrahydro-1H-imidazo[1,5-a]pyrazin-2-yl]-2,2-dimethyl-butanoic acid] |  | 0% | >12500 | > 100000 nM | 387 µg/mL (≈ 625 µM) | 4.6 mL/min/kg | 8 nM |  |  |
| CCOC(=O)C1=C(CN2CCN3C(=O)N(CC(C)(C)C(=O)O)C[C@@H]3C2)NC(c2nccs2)=N[C@H]1c1cccc(F)c1C [Example 76, 3-[(8aS)-7-[[(4S)-5-ethoxycarbonyl-4-(3-fluoro-2-methyl-phenyl)-2-thiazol-2-yl-1,4-dihydropyrimidin-6-yl]methyl]-3-oxo-5,6,8,8a-tetrahydro-1H-imidazo[1,5-a]pyrazin-2-yl]-2,2-dimethyl-propanoic acid] |  | 1.3% | >14286 | > 100000 nM | 565 µg/mL (≈ 944 µM) | 0.8 mL/min/kg | 7 nM |  |  |
| COC(=O)C1=C(CN2CCN3C(=O)N(CC(C)(C)C(=O)O)C[C@@H]3C2)NC(c2nccs2)=N[C@H]1c1ccc(F)cc1Cl [Example 42, 3-[(8aS)-7-[[(4R)-4-(2-chloro-4-fluoro-phenyl)-5-methoxycarbonyl-2-thiazol-2-yl-1,4-dihydropyrimidin-6-yl]methyl]-3-oxo-5,6,8,8a-tetrahydro-1H-imidazo[1,5-a]pyrazin-2-yl]-2,2-dimethyl-propanoic acid] |  | 0.6% | >15625 | > 100000 nM | > 785 µg/mL | 2.0 mL/min/kg | 6 nM |  |  |
| COC(=O)C1=C(CN2CCN3C(=O)N(CC4(C(=O)O)CC4)C[C@@H]3C2)NC(c2nccs2)=N[C@H]1c1ccc(F)c(F)c1C [Example 38, 1-[[(8aS)-7-[[(4S)-4-(3,4-difluoro-2-methyl-phenyl)-5-methoxycarbonyl-2-thiazol-2-yl-1,4-dihydropyrimidin-6-yl]methyl]-3-oxo-5,6,8,8a-tetrahydro-1H-imidazo[1,5-a]pyrazin-2-yl]methyl]cyclopropanecarboxylic acid] |  | 0.2% | 21276 | 100000 nM | 627 µg/mL (≈ 1040 µM) | 2.0 mL/min/kg | 5 nM |  |  |
| COC(=O)C1=C(CN2CCN3C(=O)N(C(C)(C)C)C[C@@H]3[C@H]2C(=O)O)NC(c2nccs2)=N[C@H]1c1ccc(F)cc1Cl (single isomer, unassigned) [Example 86B] |  | 11% | >25000 | > 100000 nM | > 740 µg/mL | 4.7 mL/min/kg | 4 nM |  |  |
| COC(=O)C1=C(CN2CCN3C(=O)N(C4CCC(C(=O)O)CC4)C[C@@H]3C2)NC(c2nccs2)=N[C@H]1c1ccc(F)cc1Cl (stereo partly drawn) [Example 73, 4-[(8aS)-7-[[(4R)-4-(2-chloro-4-fluoro-phenyl)-5-methoxycarbonyl-2-thiazol-2-yl-1,4-dihydropyrimidin-6-yl]methyl]-3-oxo-5,6,8,8a-tetrahydro-1H-imidazo[1,5-a]pyrazin-2-yl]cyclohexanecarboxylic acid] |  | 0% | 7778 | 70000 nM |  | 8.1 mL/min/kg |  | 564 µg/mL | 9 nM |
